Reference: patent publication US20120064505A1, “MEASUREMENT OF MATERIAL PROPERTIES AND RELATED METHODS AND COMPOSITIONS” (Massachusetts Institute of Technology, priority 2010, published 2012)
“Also recorded” adds a separate entry of the source.

Tests used:
[1] = test system: Acute promyelocytic leukemia cells; details: differentiated down the neutrophil lineage for three days; cited from earlier work
[2] = test system: P. falciparum-infected RBCs (iRBCs) and co-cultured uninfected RBCs (uRBCs); assay: Microfluidic deformability cytometer: RBC mobility after artesunate treatment; assay type: cell-based, human; details: for separation resolution between iRBCs and uRBCs: after drug treatment vs without
Description: The deformability of both iRBCs and uRBCs were measured at 2, 4 and 6 hours after artesunate drug treatment (FIG. 60). A synchronized culture of rings with ˜15% parasitemia was resuspended at 0.1% hematocrit in malaria culture medium containing 0.01, 0.05 or 0.1 μg/ml of artesunate.
Layout program CleWin3.0 was used to design the microfluidic device, which consists of a 500×500 μm^2 inlet reservoir, a 500×500 μm^2 outlet reservoir, and parallel capillary channels with triangular pillar arrays (FIG. 55A). Three different pore-size of 2.5, 3.0 and 4.0 μm were designed for the capillary channels to test optimum deformation condition for the experiment. A silicon mold of the device was made using standard silicon processing techniques. The photolithography step was done using a 5× reduction step-and-repeat projection stepper (Nikon NSR2005i9, Nikon Prevision) and reactive-ion etching (RIE) techniques were used to give the mold a final depth of 4.2 μm. Final device was then casted from the silicon mold using polydimethylsiloxane (PDMS) and was sealed by a glass slide using oxygen plasma.
P. falciparum 3D7A parasites (from Malaria Research and Reference Reagent Source, American Type Culture Collection) were cultured in leukocyte-free human RBCs (Research Blood Components, Brighton Mass.) in RPMI 1640 complete medium as described (Trager and Jensen J. parasitol. 2005). Parasites cultures were synchronized by sorbitol lysis (Lambros, C 1979 J. parasitol.) two hours after merozoite invasion.
1× Phosphate buffered saline (PBS) was mixed with 1% w/v Bovine Serum Albumin (BSA) (Sigma-Aldrich, St. Louis, Mo.) as a stock solution and was fresh made on every experimental day. For experiments tracking fluid flow velocity, 200 nm FluoSpheres europium luminescent microspheres (Molecular Probes, Eugene, Oreg.) were used at a final concentration of 5.0×10^−[…] percent solids. For experiments involving only healthy RBCs, fresh whole blood (Research Blood Components, Brighton, Mass.) was used at 100 times dilution (i.e. 1 μl whole blood with 99 μl stock solution). For experiments involving parasitized cells, 1 ml of cultured cells were spun down at 1,000 rpm for 5 minute; 1 μl of the pellet was then aliquot to 200 μl stock solution.
10 μl of 1×10^−6M thiazole orange Orange (Invitrogen, Carlsbad, Calif.), which stains the RNA of the cell, was added to the aforementioned 200 μl iRBC solution 20 minutes before the experiment. The infected cells would appear fluorescent under the GFP filter set whereas the uninfected cells were seen as dark shadows.
To control the ambient temperature, the microscope surface was replaced by a heating chamber (Olympus), which was preheated to a desired temperature range (i.e. 30-40° C.) for 30 minutes before the beginning of every experiment. […]

RBCs = assay: Deformability cytometer: velocity and passage of glutaraldehyde-treated RBCs; assay type: cell-based, human; details: 30 minutes in PBS; about 0.61 Pa/μm; FIG. 5B
Excerpt: A mold of the device was made on a silicon wafer using photolithography and reactive-ion etching techniques. A 5× reduction step-and-repeat projection stepper (Nikon NSR2005i9, Nikon Precision) was used for patterning. The spacing between pillars was 3 μm, and the depth of the device was 4.2 μm. The device was made using standard PDMS casting protocols and bonded to a glass slide.
PBS was mixed with 0.2% w/v Pluronic F-108 (BASF, Mount Olive, N.J.) and 1% w/v Bovine Serum Albumin (BSA) (Sigma-Aldrich, St. Louis, Mo.) as a stock solution to prevent RBC adhesion to the device walls. For the fluorescent bead experiments, 200 nm FluoSpheres europium luminescent microspheres (Molecular Probes, Eugene, Oreg.) diluted to a final concentration of 1.25×10^−5 percent solids were used.
In experiments involving blood, 1 μl of whole blood (−50% hematocrit) was diluted in 100 μl of the PBS-pluronic-BSA solution for all of the experiments. In experiments involving parasites that express GFP, no further treatment was performed. In experiments involving healthy RBCs, 1 μl of whole blood (Research Blood Components, Brighton, Mass.), 1 μl of 50 μg/ml of Cell Tracker Orange (Invitrogen, Carlsbad, Calif.), and 98 μl of PBS were mixed with the indicated concentration of glutaraldehyde and allowed to sit for 30 minutes. The sample was then washed 3 times with the PBS-Pluronic-BSA solution. […]

WT T cells = assay: Micropipette aspiration of chemokine-stimulated migratory T cells (WT); assay type: cell-based, mouse
Description: (§1) Cells from the peripheral lymph nodes and the spleen of Balb/c mice and WAS−/− mice on Balb/c background were pooled and enriched using the EasySep Mouse CD8+ T Cell Enrichment Kit from STEMCELL Technologies (British Columbia, Canada). Enrichment was confirmed using fluorescence-activated cell sorting (FACS) by staining the cells with FITC/anti-Thy1.2 and PE/anti-CD8α antibodies (Abs). The'memory T cell population was assessed by evaluating the expression of CD44 and CD62L via FACS. T cells in an activation medium with 100 units/mL IL-2 and 1% anti-CD28 Ab were activated by plate-bound anti-CD3 Abs for 4 day at 37° C. The activation medium included RPMI with 10% FBS, 10 mM HEPES (1M), 1% NEAA, 1% sodium pyruvate (100 mM), 50 μM β-mercaptoethanol, 4 mM L-glutamine, and 100 μg/mL Pen/Strep. Cell activation was verified via FACS measurement of CD25.
(§2) Micropipettes made using a micropipette puller were trimmed to 2.5-3 or 4.5-5 μm inner diameter for testing naïve and activated T cells. MPA glass chambers consisted of a 24 mm×60 mm microscope coverslip bottom, a U-shaped parafilm spacer, and a 22 mm×22 mm microscope coverslip top. The assembly was baked for two hours at 80° C. to ensure good adhesion between the components.
(§3) Enriched WT and WAS−/− T cells in DMEM with 1% BSA and 0.1% Pen/Strep were induced to migrate through polycarbonate Transwell inserts (Costar, Cambridge, Mass.) with 5-μm pores in a 24-well plate toward a CCL19 chemokine source (R&D Systems, Minneapolis, Minn.). Inserts contained 5×10^5 cells in 100 μL of medium, and wells contained 1 mL of medium with either no CCL19 or 100 ng/mL of CCL19. Cells were allowed to migrate for ˜7 hours at 37° C., and those that crossed the membrane were collected and used for MPA studies.
3×10^5 cells in 100 μL RPMI with 10% FBS and 1% HEPES was stained with 10 μL trypan blue. The mixture was added to 600 μL of either the RPMI medium or the T cell activation medium with IL-2 for naïve and activated T cell testing. […] The cell movement in the micropipette was recorded with a CCD camera. […]

WAS−/− T cells [3] = assay: Micropipette aspiration of chemokine-stimulated migratory T cells (WAS−/−); assay type: cell-based, mouse; details: naïve WAS−/− T cells that migrated toward CCL19 100 ng/mL, ~7 hours; mean+/−SD
Description: as §1
as §2, with “components. […]” for “components.”
3×10^5 cells in 100 μL RPMI with 10% FBS and 1% HEPES was stained with 10 μL trypan blue. […] The cell movement in the micropipette was recorded with a CCD camera. […]

WAS−/− T cells [4] = assay: In vitro Transwell cell migration toward CCL19 (WAS−/−); assay type: cell-based, mouse; details: seven hours of exposure to CCL19; 5-μm pore Transwell
Description: as §3

CC1=C(/C=C/C(C)=C/C=C/C(C)=C/C(=O)O)C(C)(C)CCC1 [all-trans retinoic acid]
compliance increase vs control [1]: 45%

C[C@H]1[C@H](OC(=O)CCC(=O)O)O[C@@H]2O[C@@]3(C)CC[C@H]4[C@H](C)CC[C@@H]1[C@@]24OO3 [artesunate]
cell mobility change due to drug treatment ([2]; FIG. 60, 2, 4 and 6 hours, 0.01 to 0.1 μg/ml): significant decrease in cell mobility | stiffening effect on iRBCs and uRBCs ([2]; after artesunate treatment): stiffening effect on both iRBCs and uRBCs; also recorded: both iRBCs and uRBCs stiffened considerably | separation resolution between iRBCs and uRBCs [2]: almost doubled | separation resolution between iRBCs and uRBCs ([2]; listed as Artesunate): doubled

O=CCCCC=O [glutaraldehyde]
RBC stiffness / velocity with increasing concentration (RBCs): progressively stiffer with decreasing velocity

B1: CCL19: chemokine (R&D Systems) used as chemoattractant for T cells (protein, UniProt Q99731 22-98, looked up)
C-C motif chemokine 19: GTNDAEDCCLSVTQKPIPGYIVRNFHYLLIKDGCRVPAVVFTTLRGRQLCAPPDQPWVERIIQRLQRTSAKMKRRSS
reduction of modulus from the value in the absence of CCL19 (WT T cells; migratory WT cells): more than 2 times | stiffness relative to activated cells (WT T cells; migratory WT cells vs activated WT T cells): about 1.4 times | average apparent Young's modulus (WT T cells; naïve WT T cells that migrated toward CCL19 100 ng/mL, ~7 hours, mean+/−SD): 128+/−33 Pa | average apparent Young's modulus (WAS−/− T cells [3]): 152+/−102 Pa | cells migrated (WAS−/− T cells [4]): ~6.4%
